Laboratory results published in publication PMC9420858, “Synthesis, bioactivity, and molecular docking of novel arylpiperazine derivatives as potential AR antagonists” (Frontiers in Chemistry, 2022).
Read-outs that look alike come from different tables or passages of the source.

Legend:
PC-3 cells = assay: Antiproliferative activity, CCK-8 assay, PC-3 cells; assay type: cell-based; settings: PC-3 human prostate cancer cell line, 24 h, mean ± SD of three experiments
Protocol: (§1) The antiproliferative activity of compounds 5–26 was assessed using the CCK-8 assay ([Chen et al., 2016]; [Chen et al., 2017]; [Chen et al., 2018]; [Han et al., 2020]; [Guo et al., 2021]; [Hu et al., 2022]; [Zhou et al., 2022]). The 96-well plates (1×10^5 cells/mL) were seeded with cells in a medium, the plates were cultured at 37 °C for 24 h, then different concentrations of tested drugs were added, and the plates were cultured for 24 h. After 24 h, 10 μL of CCK-8 solution (5 mg/ml) was added to the wells, and the cells were cultured for 1 h at 37°C. Cell growth inhibition was performed by measuring the absorbance at 450 nm using a microplate reader, and the percentage of cell growth inhibition was then calculated for each tested drug.
(§2) Antiproliferative activity of the novel arylpiperazine derivatives was firstly evaluated against LNCaP cells using the CCK-8 assay. […] Naftopidil and finasteride ([Banday et al., 2014]) were used as control compounds. RWPE-1 cells were used to compare their toxicity. To clarify whether the antiproliferative activity was related to any interference with AR function, the AR antagonist effect was evaluated using the luciferase reporter gene assay. […] The AR luciferase assays were conducted under the co-treatment of 1 nM AR agonist R1881, and the antagonistic activity was measured by inhibiting the R1881-induced luciferase expression.

RWPE-1 cells = assay: Cytotoxicity, CCK-8 assay, RWPE-1 normal prostate epithelial cells; assay type: cell-based; settings: RWPE-1 normal non-cancer human prostate epithelial cell line, 24 h, mean ± SD of three experiments
Protocol: as §1, §2

AR-LBD (GST) = molecular target: T1, AR-LBD (GST) (Rattus norvegicus, UniProt P15207); assay: AR binding, fluorescence polarization (PolarScreen AR Competitor Assay)
T1 sequence (P15207 651-882 limits assumed): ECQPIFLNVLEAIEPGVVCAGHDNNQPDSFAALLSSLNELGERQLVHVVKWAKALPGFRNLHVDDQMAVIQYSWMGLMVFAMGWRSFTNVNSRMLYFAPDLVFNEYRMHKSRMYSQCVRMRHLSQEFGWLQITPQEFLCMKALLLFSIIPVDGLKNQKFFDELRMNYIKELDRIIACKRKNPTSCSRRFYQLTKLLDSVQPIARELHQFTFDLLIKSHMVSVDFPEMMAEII
Protocol: Briefly, titrations are performed between the tested compounds and the preformed Fluormone™AL Green and the AR-LBD (GST) complex. The tested mixture was allowed to equilibrate at room temperature in 384-well plates for 4 h. […] Data of the ligand binding assays were analyzed using Prism software (GraphPad Software, Inc.).

LNCaP cells = assay: Antiproliferative activity, CCK-8 assay, LNCaP cells; assay type: cell-based; settings: 24 h, LNCaP human prostate cancer cell line, mean ± SD of three experiments
Protocol: as §1, §2

[1] = AR binding affinity IC50, fluorescence polarization

c1ccc(N2CCN(CCc3ccc(COc4ccc5c(c4)CCC5)cc3)CC2)cc1 [Compound 5, 1-(4-((2,3-dihydro-1H-inden-5-yloxy)methyl)phenethyl)-4-phenylpiperazine]
IC50 (PC-3 cells): > 50 µM | IC50 (RWPE-1 cells): > 50 µM | melting point: 82.2 to 83.5 °C | IC50 (AR-LBD (GST)): 1.46 ± 0.24 µM | IC50 (AR-LBD (GST); [1]): < 2 µM

c1ccc(CN2CCN(CCc3ccc(COc4ccc5c(c4)CCC5)cc3)CC2)cc1 [Compound 6, 1-(4-((2,3-dihydro-1H-inden-5-yloxy)methyl)phenethyl)-4-benzylpiperazine]
IC50 (PC-3 cells): 11.3 ± 0.15 µM | IC50 (LNCaP cells; Homo sapiens, LNCaP): 23.45 ± 0.12 µM | IC50 (RWPE-1 cells): 11.6 ± 0.21 µM | melting point: 71.1 to 73.3 °C

c1ccc(N2CCN(CCc3ccc(COc4ccc5c(c4)CCC5)cc3)CC2)nc1 [Compound 7, 1-(4-((2,3-dihydro-1H-inden-5-yloxy)methyl)phenethyl)-4-(pyridin-2-yl)piperazine]
IC50 (PC-3 cells): > 50 µM | IC50 (LNCaP cells; Homo sapiens, LNCaP): 15.29 ± 0.13 µM | IC50 (RWPE-1 cells): 7.68 ± 0.15 µM | melting point: 90.1 to 91.8 °C

Cc1ccccc1N1CCN(CCc2ccc(COc3ccc4c(c3)CCC4)cc2)CC1 [Compound 8, 1-(4-((2,3-dihydro-1H-inden-5-yloxy)methyl)phenethyl)-4-o-tolylpiperazine]
IC50 (PC-3 cells): > 50 µM | IC50 (LNCaP cells; Homo sapiens, LNCaP): < 10 µM | IC50 (LNCaP cells): 7.37 ± 0.15 µM | IC50 (RWPE-1 cells): > 50 µM | melting point: 62.3 to 63.1 °C | IC50 (AR-LBD (GST)): 2.35 ± 0.09 µM | IC50 (AR-LBD (GST); [1]): < 3 µM

Cc1cccc(N2CCN(CCc3ccc(COc4ccc5c(c4)CCC5)cc3)CC2)c1 [Compound 9, 1-(4-((2,3-dihydro-1H-inden-5-yloxy)methyl)phenethyl)-4-m-tolylpiperazine]
IC50 (PC-3 cells): > 50 µM | IC50 (LNCaP cells; Homo sapiens, LNCaP): 42.68 ± 0.14 µM | IC50 (RWPE-1 cells): 11 ± 0.16 µM | melting point: 61.2 to 62.7 °C

Cc1ccc(N2CCN(CCc3ccc(COc4ccc5c(c4)CCC5)cc3)CC2)cc1 [Compound 10, 1-(4-((2,3-dihydro-1H-inden-5-yloxy)methyl)phenethyl)-4-p-tolylpiperazine]
IC50 (PC-3 cells): 17.2 ± 0.21 µM | IC50 (LNCaP cells; Homo sapiens, LNCaP): 20.9 ± 0.22 µM | IC50 (RWPE-1 cells): 9.24 ± 0.23 µM | melting point: 105.1 to 106.3 °C

Cc1ccc(C)c(N2CCN(CCc3ccc(COc4ccc5c(c4)CCC5)cc3)CC2)c1 [Compound 11, 1-(4-((2,3-dihydro-1H-inden-5-yloxy)methyl)phenethyl)-4-(2,5-dimethylphenyl)piperazine]
IC50 (PC-3 cells): 4.31 ± 0.13 µM | IC50 (LNCaP cells; Homo sapiens, LNCaP): > 50 µM | IC50 (RWPE-1 cells): > 50 µM | melting point: 70.4 to 71.5 °C

COc1ccccc1N1CCN(CCc2ccc(COc3ccc4c(c3)CCC4)cc2)CC1 [Compound 12, 1-(4-((2,3-dihydro-1H-inden-5-yloxy)methyl)phenethyl)-4-(2-methoxyphenyl)piperazine]
IC50 (PC-3 cells): 25.62 ± 0.17 µM | IC50 (LNCaP cells; Homo sapiens, LNCaP): < 10 µM | IC50 (LNCaP cells): 8.12 ± 0.11 µM | IC50 (RWPE-1 cells): > 50 µM | melting point: 77.3 to 78.5 °C | IC50 (AR-LBD (GST)): 2.53 ± 0.15 µM | IC50 (AR-LBD (GST); [1]): < 3 µM

CCOc1ccccc1N1CCN(CCc2ccc(COc3ccc4c(c3)CCC4)cc2)CC1 [Compound 13, 1-(4-((2,3-dihydro-1H-inden-5-yloxy)methyl)phenethyl)-4-(2-ethoxyphenyl)piperazine]
IC50 (PC-3 cells): > 50 µM | IC50 (LNCaP cells; Homo sapiens, LNCaP): > 50 µM | IC50 (RWPE-1 cells): > 50 µM | melting point: 65.2 to 66.1 °C

COc1cccc(N2CCN(CCc3ccc(COc4ccc5c(c4)CCC5)cc3)CC2)c1 [Compound 14, 1-(4-((2,3-dihydro-1H-inden-5-yloxy)methyl)phenethyl)-4-(3-methoxyphenyl)piperazine]
IC50 (PC-3 cells): 0.87 ± 0.12 µM | IC50 (RWPE-1 cells): > 50 µM | melting point: 74.2 to 75.4 °C | IC50 (AR-LBD (GST)): 2.62 ± 0.25 µM

COc1ccc(N2CCN(CCc3ccc(COc4ccc5c(c4)CCC5)cc3)CC2)cc1 [Compound 15, 1-(4-((2,3-dihydro-1H-inden-5-yloxy)methyl)phenethyl)-4-(4-methoxyphenyl)piperazine]
IC50 (PC-3 cells): 8.94 ± 0.21 µM | IC50 (LNCaP cells; Homo sapiens, LNCaP): < 10 µM | IC50 (LNCaP cells): 9.72 ± 0.13 µM | IC50 (RWPE-1 cells): 21.7 ± 0.23 µM | melting point: 78.1 to 79.3 °C | IC50 (AR-LBD (GST)): 2.85 ± 0.65 µM

Fc1ccccc1N1CCN(CCc2ccc(COc3ccc4c(c3)CCC4)cc2)CC1 [Compound 16, 1-(4-((2,3-dihydro-1H-inden-5-yloxy)methyl)phenethyl)-4-(2-fluorophenyl)piperazine]
IC50 (PC-3 cells): > 50 µM | IC50 (LNCaP cells; Homo sapiens, LNCaP): 18.56 ± 0.17 µM | IC50 (RWPE-1 cells): > 50 µM | melting point: 64.2 to 65.3 °C

Fc1ccc(N2CCN(CCc3ccc(COc4ccc5c(c4)CCC5)cc3)CC2)cc1 [Compound 17, 1-(4-((2,3-dihydro-1H-inden-5-yloxy)methyl)phenethyl)-4-(4-fluorophenyl)piperazine]
IC50 (PC-3 cells): 1.45 ± 0.17 µM | IC50 (LNCaP cells; Homo sapiens, LNCaP): 17.92 ± 0.13 µM | IC50 (RWPE-1 cells): > 50 µM | melting point: 79.8 to 80.5 °C

Fc1ccc(N2CCN(CCc3ccc(COc4ccc5c(c4)CCC5)cc3)CC2)c(F)c1 [Compound 18, 1-(4-((2,3-dihydro-1H-inden-5-yloxy)methyl)phenethyl)-4-(2,4-difluorophenyl)piperazine]
IC50 (PC-3 cells): 1.92 ± 0.24 µM | IC50 (LNCaP cells; Homo sapiens, LNCaP): 10.7 ± 0.14 µM | IC50 (RWPE-1 cells): > 50 µM | melting point: 86.1 to 86.5 °C

Clc1ccccc1N1CCN(CCc2ccc(COc3ccc4c(c3)CCC4)cc2)CC1 [Compound 19, 1-(4-((2,3-dihydro-1H-inden-5-yloxy)methyl)phenethyl)-4-(2-chlorophenyl)piperazine]
IC50 (PC-3 cells): > 50 µM | IC50 (LNCaP cells; Homo sapiens, LNCaP): < 10 µM | IC50 (LNCaP cells): 6.87 ± 0.06 µM | IC50 (RWPE-1 cells): 32.67 ± 0.14 µM | melting point: 91.4 to 92.1 °C | IC50 (AR-LBD (GST)): 2.06 ± 0.21 µM | IC50 (AR-LBD (GST); [1]): < 3 µM

Clc1cccc(N2CCN(CCc3ccc(COc4ccc5c(c4)CCC5)cc3)CC2)c1 [Compound 20, 1-(4-((2,3-dihydro-1H-inden-5-yloxy)methyl)phenethyl)-4-(3-chlorophenyl)piperazine]
IC50 (PC-3 cells): 1.56 ± 0.14 µM | IC50 (LNCaP cells; Homo sapiens, LNCaP): 16.98 ± 0.15 µM | IC50 (RWPE-1 cells): > 50 µM | melting point: 83.2 to 84.3 °C

Clc1ccc(N2CCN(CCc3ccc(COc4ccc5c(c4)CCC5)cc3)CC2)cc1 [Compound 21, 1-(4-((2,3-dihydro-1H-inden-5-yloxy)methyl)phenethyl)-4-(4-chlorophenyl)piperazine]
IC50 (PC-3 cells): > 50 µM | IC50 (RWPE-1 cells): > 50 µM | melting point: 117.2 to 118.6 °C | IC50 (AR-LBD (GST)): 0.65 ± 0.08 µM | IC50 (AR-LBD (GST); [1]): < 2 µM

Clc1cccc(N2CCN(CCc3ccc(COc4ccc5c(c4)CCC5)cc3)CC2)c1Cl [Compound 22, 1-(4-((2,3-dihydro-1H-inden-5-yloxy)methyl)phenethyl)-4-(2,3-dichlorophenyl)piperazine]
IC50 (PC-3 cells): 23.48 ± 0.23 µM | IC50 (LNCaP cells; Homo sapiens, LNCaP): < 10 µM | IC50 (LNCaP cells): 6.32 ± 0.14 µM | IC50 (RWPE-1 cells): > 50 µM | melting point: 77.2 to 78.4 °C | IC50 (AR-LBD (GST)): 2.47 ± 0.11 µM | IC50 (AR-LBD (GST); [1]): < 3 µM

Cc1ccc(Cl)cc1N1CCN(CCc2ccc(COc3ccc4c(c3)CCC4)cc2)CC1 [Compound 23, 1-(4-((2,3-dihydro-1H-inden-5-yloxy)methyl)phenethyl)-4-(5-chloro-2-methylphenyl)piperazine]
IC50 (PC-3 cells): 0.95 ± 0.14 µM | IC50 (LNCaP cells; Homo sapiens, LNCaP): 12.6 ± 0.22 µM | IC50 (RWPE-1 cells): > 50 µM | melting point: 87.4 to 88.3 °C

Brc1ccc(N2CCN(CCc3ccc(COc4ccc5c(c4)CCC5)cc3)CC2)cc1 [Compound 24, 1-(4-((2,3-dihydro-1H-inden-5-yloxy)methyl)phenethyl)-4-(4-bromophenyl)piperazine]
IC50 (PC-3 cells): 2.31 ± 0.23 µM | IC50 (LNCaP cells; Homo sapiens, LNCaP): 14.7 ± 0.15 µM | IC50 (RWPE-1 cells): > 50 µM | melting point: 114.1 to 115.2 °C

FC(F)(F)c1ccccc1N1CCN(CCc2ccc(COc3ccc4c(c3)CCC4)cc2)CC1 [Compound 25, 1-(4-((2,3-dihydro-1H-inden-5-yloxy)methyl)phenethyl)-4-(2-(trifluoromethyl)phenyl)piperazine]
IC50 (PC-3 cells): > 50 µM | IC50 (RWPE-1 cells): > 50 µM | melting point: 53.6 to 54.8 °C | IC50 (AR-LBD (GST)): 1.22 ± 0.15 µM | IC50 (AR-LBD (GST); [1]): < 2 µM

FC(F)(F)c1ccc(N2CCN(CCc3ccc(COc4ccc5c(c4)CCC5)cc3)CC2)cc1 [Compound 26, 1-(4-((2,3-dihydro-1H-inden-5-yloxy)methyl)phenethyl)-4-(4-(trifluoromethyl)phenyl)piperazine]
IC50 (PC-3 cells): > 50 µM | IC50 (RWPE-1 cells): > 50 µM | melting point: 135.3 to 136.5 °C | IC50 (AR-LBD (GST)): 1.43 ± 0.18 µM | IC50 (AR-LBD (GST); [1]): < 2 µM

COc1ccccc1N1CCN(CC(O)COc2cccc3ccccc23)CC1 (stereo not shown) [Naftopidil, reference compound]
IC50 (PC-3 cells): 42.1 ± 0.79 µM | IC50 (LNCaP cells; Homo sapiens, LNCaP): 22.4 ± 0.61 µM | IC50 (RWPE-1 cells): > 50 µM
